From US20050070480A1, “Peptide arginals and methods for treating disseminated intravascular coagulation” (priority 2001, published 2005) come the findings set out here.

Read-outs that look alike come from different tables or passages of the source. Non-standard residues stand in square brackets, D forms with d. Residues, ends and D or L forms follow the SMILES beside them. dNMeChg = CN[C@@H](C(=O)O)C1CCCCC1; Aze = O=C(O)[C@@H]1CCN1

Assay [1] deals with citrated human plasma. Put plainly: Prothrombin time (PT) plasma clotting assay. It counts as biochemical. The protocol: (§1) The inhibitory effect on plasma coagulation was evaluated in the thrombin time (TT), activated partial thromboplastin time (APTT) and prothrombin time (PT) assays by using citrated human plasma as substrate [Bagdy, D. et. al.: Thromb. Haemostas. 67, 325 (1992)]. The TT assay measures the inhibition of a single step, the coagulation of fibrinogen on the action of exogenous thrombin (final concentration 2.5 NIH U/ml). Clotting of plasma in the APTT and PT assays was induced by recalcification. Endogenous thrombin generated could theoretically be present at a final concentration as high as 50 NIH U/ml (APTT, PT). These assays detect the sum of inhibitory actions on fibrin formation and thrombin generation, which includes several proteolytic reactions mediated by either thrombin or other enzymes, e.g. fXa. Anticlotting activity is expressed in CT2, which is the concentration (nM) required to double the clotting time.

The next assay concerns the target clot-bound thrombin (Homo sapiens, UniProt P00734). Put plainly: Enzyme inhibition in platelet-rich plasma clots, chromogenic substrate Tos-Gly-Pro-Arg-pNA. Particulars: for IC50: clot-bound thrombin, platelet-rich plasma clot. It counts as biochemical. How it is done:
(§2) Tos-Gly-Pro-Arg-pNA (S1) for thrombin and Moc-D-Chg-Gly-Arg-pNA (S2) for factor Xa, as published (Bajusz, S. et al.: PCT Pub. No. WO97/46576) briefly. The assays were carried out at room temperature in glass tubes and 96-well microtiter plates.
(§3) Solutions, (i) Buffer A: 0.1 M sodium phosphate/0.05 M NaCl (pH 8.5). (ii) Inhibitors: 0.1, 1.0 and 10 mg/ml solutions in buffer A containing 0.02% human albumin. (iii) Substrates: 1 mM of S1 and 2 mM of S2 in distilled water.
(§4) (b) Preparation of plasma clots. Platelet rich plasma samples (200 μl) placed in glass tubes were incubated at room temperature with 80 μl 40 mM CaCl2 for 60 min. The clots were washed with 2 ml aliquots of saline (0.9% NaCl) with gentle agitation to remove unbound enzymes In case of successful washing the optical density of the reaction mixture of wash and S1 is less than 5% of the control. The plasma clot thus obtained was kept under saline in the tube until use.
(§5) (c) Assessment of the enzyme inhibition in the clots. After removal of saline, the plasma clot was incubated at 37° C. with 400 μl inhibitor (or buffer A as negative control) for 5 min. and with 100 μl substrate S1 or S3 for 30 min., then the reaction was stopped with 100 μl 50% acetic acid. 150 μl portions of the reaction mixtures were placed in the wells of a microtiter plate and read at 405 nm (ELISA READER 800, Bio-Tek Instruments Inc. Winooski, Vt., USA). IC50 values were generated from the extinction data graphically.

For the next assay, the target named is urokinase (UK) (Homo sapiens, UniProt P00749). Put plainly: Fibrin plate assay, urokinase. The format is biochemical. To be noted: reduction of lysed area to 50% of control, urokinase, read-out: LA50 UK. From the text: (§6) Inhibitory effects of the compounds of the invention on plasmin (PL) and plasmin generation by plasminogen (Plogen) activators, such as tissue plasminogen activator (tPA), and urokinase (UK) were examined by the fibrin plate assay. (See e.g., Bagdy, D., Barabás, E., Bajusz, S., and Széll, E., Thromb. Haemostas., 67:325-330 (1992); Barabás, E. Szell, E. and Bajusz, S, Blood Coagulation and Fibrinolysis, 4: 243 (1993)) The results are shown in Table 1, Column C. With a few exceptions the analogues are somewhat more inhibitory than Efegatran against the three fibrinolytic enzymes.

Another assay deals with clot-bound factor Xa (Homo sapiens, UniProt P00742). Description: Enzyme inhibition in platelet-rich plasma clots, chromogenic substrate Moc-D-Chg-Gly-Arg-pNA. It counts as biochemical. The protocol: as §2, §3, §4, §5
Chain of clot-bound factor Xa (P00742 235-488 limits assumed): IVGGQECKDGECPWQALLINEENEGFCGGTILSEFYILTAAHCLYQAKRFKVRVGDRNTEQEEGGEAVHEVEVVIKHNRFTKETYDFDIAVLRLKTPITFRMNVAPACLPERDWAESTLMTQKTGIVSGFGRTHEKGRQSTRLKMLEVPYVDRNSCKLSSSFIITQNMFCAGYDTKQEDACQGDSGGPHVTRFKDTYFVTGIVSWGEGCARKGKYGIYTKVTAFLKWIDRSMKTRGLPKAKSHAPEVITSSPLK
Chain of clot-bound factor Xa (P00742 41-179 limits assumed): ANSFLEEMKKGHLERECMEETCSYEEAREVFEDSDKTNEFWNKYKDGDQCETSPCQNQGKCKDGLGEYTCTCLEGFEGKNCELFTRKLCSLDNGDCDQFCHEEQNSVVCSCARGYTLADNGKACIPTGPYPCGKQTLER
Assay [2] concerns the target tissue plasminogen activator (tPA) (Homo sapiens, UniProt P00750). Description: Fibrin plate assay, tissue plasminogen activator. The format is biochemical. Particulars: reduction of lysed area to 50% of control, read-out: LA50 tPA.
Source text: as §6

The next assay has as its target plasmin (PL) (Homo sapiens, UniProt P00747). Description: Fibrin plate assay, plasmin. To be noted: reduction of lysed area to 50% of control, read-out: LA50 PL. It counts as biochemical.
Source text: as §6

Another assay concerns LPS-treated rats. Put plainly: Survival in a rat model for disseminated intravascular coagulation. The format is in vivo. To be noted: for Effectiveness on survival compared with reference C (in words): LPS-treated rats; for Survival rate %: rats, 30 mg/kg LPS i.v.
Assay [3] deals with citrated human plasma. Put plainly: Activated partial thromboplastin time (APTT) plasma clotting assay. The format is biochemical. How it is done: as §1
The subject of assay [4] is citrated human plasma (exogenous thrombin). Description: Thrombin time (TT) plasma clotting assay. It counts as biochemical. To be noted: thrombin 2.5 NIH U/ml. How it is done:
as §1

The subject of assay [5] is endotoxin-treated rabbits. The format is in vivo, rabbit.
Where [6] appears, read: 0.75 mg/kg bolus + infusion, 0 hours.
The mark [7] stands for this setting: 0.75 mg/kg bolus + infusion, 4 hours.
[8] abbreviates: 0.75 mg/kg bolus + infusion, 5 hours.
Setting [9] is: 0.75 mg/kg bolus + infusion, 6 hours.
The mark [10] stands for this setting: 0.75 mg/kg bolus + infusion, 7 hours.
Setting [11] is: 0.75 mg/kg bolus + infusion, 8 hours.
Setting [12] is: 1.5 mg/kg bolus + infusion, 0 hours.
The mark [13] stands for this setting: 1.5 mg/kg bolus + infusion, 4 hours.
Where [14] appears, read: 1.5 mg/kg bolus + infusion, 5 hours.
Setting [15] is: 1.5 mg/kg bolus + infusion, 6 hours.
The mark [16] stands for this setting: 1.5 mg/kg bolus + infusion, 7 hours.
The mark [17] stands for this setting: 1.5 mg/kg bolus + infusion, 8 hours.
[18] abbreviates: endotoxin-treated rabbits, 0.5 mg/kg/h infusion.
[19] abbreviates: endotoxin-treated rabbits, 50 U/kg/h.
Where [20] appears, read: endotoxin-treated rabbits, 100 U/kg/h.

Chain of plasmin (PL) (P00747 581-810 limits assumed, species assumed): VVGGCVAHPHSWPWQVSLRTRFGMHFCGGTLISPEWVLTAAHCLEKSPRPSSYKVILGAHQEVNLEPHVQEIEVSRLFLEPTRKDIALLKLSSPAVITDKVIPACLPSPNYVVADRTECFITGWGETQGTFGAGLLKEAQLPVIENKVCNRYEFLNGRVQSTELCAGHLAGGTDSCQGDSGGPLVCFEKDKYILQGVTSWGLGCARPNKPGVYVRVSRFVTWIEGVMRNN
Chain of plasmin (PL) (P00747 97-580 limits assumed, species assumed): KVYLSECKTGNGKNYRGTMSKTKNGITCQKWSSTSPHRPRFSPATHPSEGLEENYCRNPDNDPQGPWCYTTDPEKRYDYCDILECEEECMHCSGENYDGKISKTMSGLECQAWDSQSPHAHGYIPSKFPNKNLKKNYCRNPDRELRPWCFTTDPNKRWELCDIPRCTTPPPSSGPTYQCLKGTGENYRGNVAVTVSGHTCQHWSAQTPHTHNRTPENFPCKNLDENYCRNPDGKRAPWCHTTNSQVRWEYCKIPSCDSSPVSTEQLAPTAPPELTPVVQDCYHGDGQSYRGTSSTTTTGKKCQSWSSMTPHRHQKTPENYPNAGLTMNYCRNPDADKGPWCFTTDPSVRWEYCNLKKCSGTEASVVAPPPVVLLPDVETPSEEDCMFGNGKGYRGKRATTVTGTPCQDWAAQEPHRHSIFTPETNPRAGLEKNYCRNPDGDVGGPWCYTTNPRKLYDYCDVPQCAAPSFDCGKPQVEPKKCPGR
Chain of tissue plasminogen activator (tPA) (P00750 36-562, species assumed): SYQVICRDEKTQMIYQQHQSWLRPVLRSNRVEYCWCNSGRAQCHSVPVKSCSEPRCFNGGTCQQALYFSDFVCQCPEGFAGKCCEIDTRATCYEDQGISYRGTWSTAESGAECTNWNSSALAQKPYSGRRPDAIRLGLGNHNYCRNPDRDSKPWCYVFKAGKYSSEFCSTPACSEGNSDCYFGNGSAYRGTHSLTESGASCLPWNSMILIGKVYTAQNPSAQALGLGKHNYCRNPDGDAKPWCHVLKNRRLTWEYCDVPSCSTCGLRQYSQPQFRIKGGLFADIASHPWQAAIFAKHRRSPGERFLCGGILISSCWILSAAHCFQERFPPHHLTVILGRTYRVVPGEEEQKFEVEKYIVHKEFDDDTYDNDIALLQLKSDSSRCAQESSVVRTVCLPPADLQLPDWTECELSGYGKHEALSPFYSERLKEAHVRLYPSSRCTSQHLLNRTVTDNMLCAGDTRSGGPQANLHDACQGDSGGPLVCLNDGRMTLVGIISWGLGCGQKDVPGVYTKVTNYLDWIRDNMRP

As for `CN[C@H](CC1CCCCCC1)C(=O)N1CCC[C@H]1C(=O)N[C@H](C=O)CCCNC(=N)N` [Compound 2, N-methyl-D-cycloheptylalanyl-L-prolyl-L-arginine aldehyde], in the assay on citrated human plasma [1], the “CT2 PT (concentration required for doubling the clotting time)” value (shortened to “CT2 PT”) came out at 876 nM. In addition, at clot-bound thrombin, the “Inhibition of clot-bound thrombin compared with Efegatran (in words)” value is listed as “surpass Efegatran”. Besides, the IC50 is 0.093 µM on clot-bound thrombin; 18 µM at urokinase (UK); 0.102 µM at clot-bound factor Xa; 14 µM in [2]; 16 µM on plasmin (PL). Further, the “Effectiveness on survival compared with reference C (in words)” value with LPS-treated rats is on record as “more effective than reference C”. For the same compound, the Survival rate % in the assay with LPS-treated rats (setting [6]) is on record as 100%; in the assay with LPS-treated rats (setting [7]), 86%; in the assay on LPS-treated rats (setting [8]) it was 78%; with LPS-treated rats (setting [9]), 57%; in the assay on LPS-treated rats (setting [10]) it was 57%; in the assay with LPS-treated rats (setting [11]), 50%. The Survival rate % in the assay on LPS-treated rats (1.0 mg/kg bolus + infusion, 0 hours) turned out to be 100%; in the assay on LPS-treated rats (1.0 mg/kg bolus + infusion, 4 hours) it was 100%; with LPS-treated rats (1.0 mg/kg bolus + infusion, 5 hours) it was 100%; in the assay with LPS-treated rats (1.0 mg/kg bolus + infusion, 6 hours), 100%; in the assay on LPS-treated rats (1.0 mg/kg bolus + infusion, 7 hours), 90%; in the assay on LPS-treated rats (1.0 mg/kg bolus + infusion, 8 hours) it was 90%. For the same compound, the Survival rate % with LPS-treated rats (setting [12]), in the assay on LPS-treated rats (setting [13]), with LPS-treated rats (setting [14]), with LPS-treated rats (setting [15]), in the assay with LPS-treated rats (setting [16]) and with LPS-treated rats (setting [17]) was 100% in each case. The “CT2 APTT (concentration required for doubling the clotting time)” value (“CT2 APTT” below) with citrated human plasma [3] stood at 315 nM. The “CT2 TT (concentration required for doubling the clotting time)” value (“CT2 TT” below) in [4] turned out to be 118 nM.
Consider `CN[C@@H](C(=O)N1CC[C@H]1C(=O)N[C@H](C=O)CCCNC(=N)N)C1CCCCC1` [Compound 4, N-methyl-D-cyclohexylglycyl-L-azetidine-2-carbonyl-L-arginine aldehyde] (H-[dNMeChg]-[Aze]-Arg-aldehyde), for which the “CT2 PT” value with citrated human plasma [1] is 2921 nM. For the same compound, the “Inhibition of clot-bound thrombin compared with Efegatran (in words)” value at clot-bound thrombin is “surpass Efegatran”. Besides, the IC50 against clot-bound thrombin amounted to 0.245 µM; on urokinase (UK), 16 µM; against clot-bound factor Xa, 0.457 µM; in [2], 12 µM; at plasmin (PL), 32 µM. In addition, the “Effectiveness on survival compared with reference C (in words)” value with LPS-treated rats is “more effective than reference C”. Besides, the Survival rate % in the assay on LPS-treated rats (0.5 mg/kg bolus + infusion, 0 hours) is listed as 100%; with LPS-treated rats (0.5 mg/kg bolus + infusion, 4 hours), 93%; in the assay on LPS-treated rats (0.5 mg/kg bolus + infusion, 5 hours), 87%; in the assay with LPS-treated rats (0.5 mg/kg bolus + infusion, 6 hours), 87%; in the assay with LPS-treated rats (0.5 mg/kg bolus + infusion, 7 hours), 87%; in the assay with LPS-treated rats (0.5 mg/kg bolus + infusion, 8 hours), 80%. In addition, the Survival rate % in the assay on LPS-treated rats (setting [6]) is 100%; in the assay on LPS-treated rats (setting [7]) it was 100%; in the assay with LPS-treated rats (setting [8]), 100%; in the assay on LPS-treated rats (setting [9]) it was 100%; with LPS-treated rats (setting [10]), 92%; with LPS-treated rats (setting [11]), 85%. In addition, the Survival rate % in the assay on LPS-treated rats (setting [12]), in the assay with LPS-treated rats (setting [13]), in the assay on LPS-treated rats (setting [14]), in the assay with LPS-treated rats (setting [15]), with LPS-treated rats (setting [16]) and with LPS-treated rats (setting [17]) was 100% throughout. Besides, in the assay on citrated human plasma [3], the “CT2 APTT” value turned out to be 677 nM. For the same compound, in [4], the “CT2 TT” value was determined as 101 nM.
As to `N=C(N)NCCC[C@@H](C=O)NC(=O)[C@@H]1CCCN1C(=O)[C@H](O)C1CCCCCC1` [Compound C1, reference compound], the “CT2 PT” value with citrated human plasma [1] was found to be 1254 nM. Further, the IC50 against clot-bound thrombin worked out at 0.524 µM; at urokinase (UK), 120 µM; against clot-bound factor Xa, 0.2 µM; in assay [2], 74 µM; on plasmin (PL) it was 83 µM. Moreover, the “Effect on lethality of endotoxin-treated rabbits (in words)” value in assay [5] (compared with endotoxin alone) is on record as “no effect on lethality”. In addition, in assay [5] (setting [18]), the “Lethality %, 2 hrs” value was found to be 0%. Further, in [5] (setting [18]), the “Lethality no. died/treated animals, 2 hrs” value was 0/16. Besides, in assay [5] (setting [18]), the “Lethality %, 4 hrs” value turned out to be 31%. The “Lethality no. died/treated animals, 4 hrs” value in assay [5] (setting [18]) is listed as 5/16. The “CT2 APTT” value in the assay on citrated human plasma [3] turned out to be 333 nM. For the same compound, the “CT2 TT” value in [4] is recorded as 120 nM.
Take `N=C(N)NCCC[C@@H](C=O)NC(=O)[C@@H]1CCCN1C(=O)C(O)CCc1ccccc1` (stereo partly drawn) [Compound C3, hPla-Pro-Arg-H]: in [5] (setting [18]), the “Lethality %, 2 hrs” value is recorded as 6%; the “Lethality no. died/treated animals, 2 hrs” value is given as 1/18; the “Lethality %, 4 hrs” value is reported as 56%; the “Lethality no. died/treated animals, 4 hrs” value is listed as 10/18. In [5] (endotoxin-treated rabbits, relative to endotoxin alone), this compound returned an Increase in lethality of about 1.8 fold.
For the compound heparin, in assay [5] (setting [19]), the “Lethality %, 2 hrs” value came out at 0%; the “Lethality no. died/treated animals, 2 hrs” value is 0/17; the “Lethality %, 4 hrs” value is recorded as 35%; the “Lethality no. died/treated animals, 4 hrs” value is listed as 6/17. For the same compound, in assay [5] (setting [20]), the “Lethality %, 2 hrs” value is 0%; the “Lethality no. died/treated animals, 2 hrs” value is 0/19; the “Lethality %, 4 hrs” value was found to be 37%; the “Lethality no. died/treated animals, 4 hrs” value is listed as 7/19.
